Data published in PubChem BioAssay (NCI).
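Compound exposure: 48 hours, 5 concentrations, 96-well plates. TGI: concentration producing complete growth inhibition.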

Assays:
Assay in all cases: NCI-60 cell line screen, 48 h
[1] = tested on: MDA-N
[2] = tested on: HOP-62 NSCLC
[3] = tested on: OVCAR-3 ovarian
[4] = tested on: SNB-75 CNS
[5] = tested on: T-47D breast
[6] = tested on: EKVX NSCLC
[7] = tested on: IGROV1 ovarian
[8] = tested on: NCI-H522 lung
[9] = tested on: COLO 205 colon
[10] = tested on: NCI-H460 lung
[11] = tested on: SF-268 CNS
[12] = tested on: SF-295 CNS
[13] = tested on: U251 CNS
[14] = tested on: HCC-2998 colon
[15] = tested on: HCT-116 colon
[16] = tested on: NCI-H226 lung
[17] = tested on: SK-MEL-2 melanoma
[18] = tested on: HCT-15 colon
[19] = tested on: MALME-3M melanoma
[20] = tested on: K-562 leukemia

SMILES	TGI [1] [µM]	TGI [2] [µM]	TGI [3] [µM]	TGI [4] [µM]	TGI [5] [µM]	TGI [6] [µM]	TGI [7] [µM]	TGI [8] [µM]	TGI [9] [µM]	TGI [10] [µM]	TGI [11] [µM]	TGI [12] [µM]	TGI [13] [µM]	TGI [14] [µM]	TGI [15] [µM]	TGI [16] [µM]	TGI [17] [µM]	TGI [18] [µM]	TGI [19] [µM]	TGI [20] [µM]
Cc1nc2ccc(N=Nc3c(O)ccc4ccccc34)cc2[nH]1	36.7	> 100	> 56.2	> 100	41	> 83.6	> 67	54.3	> 66.6	> 87.7	> 100	> 100	> 67.9	> 70.5	> 58.4	> 100	> 76.8	> 63.5	> 66.5	> 100
O=C(c1ccsc1)c1cc2c(s1)C(=O)c1ccsc1C2=O	0.0512	0.431	0.392	0.311	0.675	0.373	0.403	0.323	2.97	0.367	0.405	0.324	0.34	1.56	0.468	1.11	0.982	0.305	0.0845	
Cc1cc2c(cc1C)C(=O)c1ncccc1C2=O	36.2	> 100	9.65	> 100	> 100	> 100	> 100	43.9	82.4	> 100	> 100	> 100	> 100	> 100	61.1	> 100	> 100	> 100	52.9	> 100
CC(C)(C)C1CCC2c3c([nH]c4ccccc34)C3C(=O)N(c4cccc(Cl)c4)C(=O)C3C2C1 (centres undefined)	24.7	18	33.3	50.1	48.7	43.7	45.7	34.5	35.8	17.7	32.4	44.7	38.4	12.4	19.3	39.9	35.1	42.6	32.4	> 49.6
N#CC(NC12CC3CC(CC(C3)C1)C2)c1ccccc1 (centres undefined)	> 100	> 100	> 100	> 100	> 100	> 100	> 100	> 100	> 100	> 100	> 100	> 100	> 100	> 100	> 100	> 100	> 100	> 100	> 100	> 100
CCOC(=O)N/N=C/C1=NN(C(=O)OCC)S(=O)C1C (centres undefined)	> 100	> 100	> 100	> 100	> 100	> 100	> 100	> 100	> 100	> 100	> 100	> 100	> 100	> 100	> 100	> 100	> 100	> 100	> 100	> 100
O=C1OC(C2Cc3cc4c(cc3C2=O)CCC4)c2ccccc21 (centres undefined)	> 100	> 100	> 100	> 100	> 100	> 100	> 100	> 100	> 100	> 100	> 100	> 100	> 100	98.7	> 100	58.6	> 100	> 100	> 100	> 100
CCOC(=O)c1ccc(-c2cccs2)n1C	> 100	> 100	> 100	> 100	> 92.4	> 100	> 100	> 100	> 100	> 100	> 100	> 100	> 100	> 100	> 100	> 100	> 100	> 100	> 100	> 100
C/C(=N/NC(=S)N1CCCCCC1)c1ccccc1O	> 100	56.7	> 40.9	69.1	> 33.6	> 100	> 39.7	> 53.2	> 49.3	25.2	> 24.5	> 100	> 100	> 42.1	> 100	> 59.5	> 100	> 100	> 49.8	> 100
COC(OC)C1(c2ccccc2)Oc2ccccc2C1=O (centres undefined)	> 100	> 100	> 100	> 100	> 100	> 100	> 100	> 100	> 100	> 100	> 100	> 100	> 100	> 100	> 100	> 100	> 100	> 100	> 100	> 100
O=C(O)c1cnccc1-c1cc(=O)[nH]n1-c1ccccc1	> 100	> 100	> 100	> 100	> 100	> 100	> 100	> 100	34.3	> 100	> 100	> 63.8	> 100	> 63.2	> 100	> 100	> 100	> 100	> 100	> 100
COc1ccc(Cc2cc(OC)c(OC)c(OC)c2)cc1O	> 100	> 49.6	> 100	> 100	> 100	> 100	> 100	5.49	> 57.1	> 100	> 100	> 100	> 22.7	> 65.9	13.6	99.4	> 100	> 100	> 100	> 100
COc1ccc(-c2cn3c(nc4ccccc43)c(C)n2)cc1	> 100	> 100	> 100	> 86.1	> 67.3	> 100	> 100	> 100	> 100	> 100	> 100	> 100	> 100	> 100	> 100	> 100	> 100	> 100	> 100	> 100
COc1cccc(N=N/C(=N/NC(=O)c2cc(Cl)ccc2O)c2ccc(N(CCC#N)CCC#N)cc2C)c1	> 100	> 100	6.48	> 100	58.4	> 100	> 100	31.9	41.2	> 100	> 100	> 100	> 100	92	> 100	> 100	> 100	> 100	48.7	> 100
Nc1nc(N)nc(-c2cnc3ccccc3c2)n1	> 100	> 100	> 100	> 100	> 100	> 100	> 100	> 100	> 100	> 100	> 100	> 100	> 100	> 100	> 100	> 100	> 100	> 100	> 100	> 100
O=[N+]([O-])c1ccccc1S(=O)(=O)c1ccccc1[N+](=O)[O-]	> 100	87	> 100	43.1	> 100	> 56.2	> 100	> 100	> 100	> 100	> 89.3	> 100	66.5	> 100	> 100	> 100	> 100	> 100	> 100	> 100
C[C@@]12C[C@@H](c3ccccc3O1)N1CCSC1=N2	> 100	> 100	> 100	> 100	> 100	> 100	> 100	> 100	> 100	> 100	> 100	> 100	> 100	> 100	> 100	> 100	> 100	> 100	> 100	> 100
COC(=O)/C=C1/OC(c2ccc(Br)cc2)=C(Br)C1=O	12.6	17.5	9.71	17.5	15.1	32	17	10.7	4.12	36.6	17	28.9	6.88	18.6	7.75	34.7	24.8	14.2	21.5	6.58
Cc1cc2c(cc1Cl)SC(NN(C)C)=NS2(=O)=O	> 10	> 10	> 10	> 10	> 10	> 10	> 10	> 10	> 10	> 10	> 10	> 10	> 10	> 10	> 10	> 10	> 10	> 10	> 10	> 10
C/C(=N\N=C(\N)OB(F)F)c1ccccn1	> 100	> 100	> 100	55.7	> 100	> 100	> 100	> 100	> 100	> 100	> 100	> 100	> 100	> 100	> 100	> 100	> 100	> 100	> 100	> 100
C[C@]1(O)CC(=O)c2c(c(-c3ccc4cc5c(c(O)c4c3O)C(=O)C[C@@](C)(O)C5)c3cccc(O)c3c2O)C1	19.4	10.9	17.2	19.3	14.4	24.7	22.8	13.5	3.3	11.3	17.9	18.6	12.3	16.4	79.7	21.9	6.22	11.4	27.1	> 100
COc1cccc2c3cccc(OC)c3c3[nH]cnc3c12	3.34	35.2	31.7	8.58	40.2	27.9	3.46	2.88	30.1	3.26	9.26	9.51	3.03	11.9	3.1	32.7	34.3	3.42	7.81	7.16
CCN(CC)CC(O)CNc1ccc(NCC(O)CCl)c2c1C(=O)c1ccccc1C2=O (centres undefined)	19.7	25.6	19.3	24.9	38.7	29.5	25.5	13.5	21.6	12.5	19.9	22.1	28	21.6	14.5	25	26.2	19.9	28.3	6.45
NC(=O)ON=C1CCN(Cc2ccccc2)CC1	> 100	> 100	> 100	> 100	> 100	> 100	> 100	> 100	> 100	> 100	> 100	> 100	> 100	> 100	> 100	> 100	> 100	> 100	> 100	> 100
